Laboratory results published in US20080039434A1, “Treatment of Interstitial Cystitis with Vitamin D Compounds” (BioXell S. p.A., priority 2004, published 2008).

Columns and labels:
[1] = Calcemia assessment in CYP rats (colorimetric serum calcium assay); format: in vivo, rat; settings: both dosage levels (30 and 75 ug/kg); limit of normal range 10.7 mg/dl in rats
Method: (§1) Serum calcemia was evaluated by a commercially available calorimetric assay (Calcium Dry-Fast, Sentinel CH. Italy). Briefly, 10 ul serum were added to 100 ul reaction solution prepared according to the manufacturer's procedure in a 96-wells plate. After 5 min incubation at RT samples were read at 570 nm with a spectrophotometer and the calcium levels were calculated in triplicate by using a standard reference as directed.

[2] = tested on: ovalbumin specific IgE; assay: Ova-specific IgE ELISA, allergic IC in mice; format: in vivo, mouse; settings: 75 ug/kg oral vs vehicle; ovalbumin-sensitized BALB/c mice
Method: (§2) Mice (BALB/c, females 8 weeks old, weight 18-20 g, Charles River, Calco ITA) were sensitized by injecting 10 ug/mouse of chicken ovalbumin from Sigma (OVA, grade V) in the presence of 4 mg of alum (SERVA, Germany) by intraperitoneal injection, once a week for 4 weeks. This induces a sustained level of IgE detectable in serum.
(§3) One or two weeks after the last immunization boost, sensitized mice were anesthetized (1.5% Isoflurane) and then trans-urethrally catheterized (24 gauge, ¾ in.; Angiocath, Becton-Dickson). Slight digital pressure was applied the lower abdomen to drain the urine.
(§4) The urinary bladders were instilled with either 150 ul of either saline or OVA alone, (1 mg/150 ul) infused at a slow rate to avoid trauma and vesico-ureteral reflux and repeated twice within a 30-min interval with the syringe kept in place on the catheter for at least 30 min. Intravesical challenge was repeated 7-10 days after the first one with the same procedure.
Treatment Group: 10 mice were treated with oral vitamin D3 analogue (1-alpha-fluoro-25-hydroxy-16,23Ediene-26,27-bishomo-20-epi-cholecalciferol) Compound “B” for 14 days (daily dose of either 30 or 75 ug/kg). […]
Ova-specific IgE were measured according to the following procedure. […] Finally, 450 nm absorbance was recorded after the reaction was stopped.

[3] = tested on: MMCP1 protein; assay: Serum level of mast-cell derived chymase MMCP1 protein, allergic IC in mice; format: in vivo, mouse
Method: as §2, §3, §4
Treatment Group: 10 mice were treated with oral vitamin D3 analogue (1-alpha-fluoro-25-hydroxy-16,23Ediene-26,27-bishomo-20-epi-cholecalciferol) Compound “B” for 14 days (daily dose of either 30 or 75 ug/kg).
(§5) An ethanol stock solution of Compound B (1 mg/ml) was dissolved in Miglyol vehicle at the appropriate concentration. Control animals received the vehicle containing the same amount of ethanol. Drug (or vehicle) treatment was carried out by daily gavage after weighing the animal. Drug solution was prepared calculating a final volume of 100 ul/10 grams body weight, and treatment was started on the day of the first intravesical ovalbumin challenge, maintained daily, but discontinued over the weekends, for 12 days total treatment. FIG. 7 illustrates the timeline of the experiment.
(§6) Experiments in Example 7 were performed according to the general procedures described previously in Example 6. Mice were challenged with saline (untreated) or ovalbumin (treatment with vehicle or one of Compounds C-I at a dosage indicated in Table 6 in ug/kg).

[4] = Calcemia assessment in allergic IC mice (colorimetric serum calcium assay); format: in vivo, mouse; design: serum calcium levels: dose or concentration left out as unconfirmed
Method: as §1, with “colorimetric” for “calorimetric”

[5] = tested on: MCPT2; assay: Taq-Man analysis of bladder mRNA, allergic IC in mice: MCPT2; format: in vivo, mouse; settings: ovalbumin challenged; 30 and 75 ug/kg oral, dose dependent; pooled samples
Method: as §2
One or two weeks after the last immunization boost, sensitized mice were anesthetized (1.5% Isoflurane) and then trans-urethrally catheterized (24 gauge, ¾ in.; Angiocath, Becton-Dickson). Slight digital pressure was applied the lower abdomen to drain the urine. […]
Total RNA was extracted from one half of bladder by using RNeasy Mini kit (Qiagen), treated with DNase 1 (Qiagen) and reverse transcription performed with Reverse Transcription Reagent (Applied Biosystems) with Random Hexamers (according to the manufacturer's instructions). cDNA was synthesized from 1 ug of RNA. […] Reaction was run on an SDS 7000 (Applied Biosystems) instruments, with the following amplification program: 2′ at 50° C.; 10′ at 95° C.; 15″ at 95° C. and 1′ at 60° C. for 40 cycles; Cycle threshold (Ct) values were exported into Excel Worksheets for analysis and relative quantitations were performed using the ΔCt method. […]

[6] = tested on: FcεR1α; assay: Taq-Man analysis of bladder mRNA, allergic IC in mice: FcεR1α; format: in vivo, mouse; settings: ovalbumin challenged
Method: as §2, §3, §4, §5
Total RNA was extracted from one half of bladder by using RNeasy Mini kit (Qiagen), treated with DNase 1 (Qiagen) and reverse transcription performed with Reverse Transcription Reagent (Applied Biosystems) with Random Hexamers (according to the manufacturer's instructions). cDNA was synthesized from 1 ug of RNA. Real-Time PCR was performed in 96-well optical reaction plates (Applied Biosystems). For each sample we amplified both the target gene and the housekeeping gene (HPRT) in different wells (singleplex) and in duplicate. The amplification Master Mix was prepared according to the following protocol (volumes refer to a single well with a final volume of 40 ul/well)): 2× TaqMan® R Universal PCR Master Mix (Applied Biosystems, 4304437): 20 ul; 20× Assay target gene: 2 ul; H2O: 8 ul; cDNA: 10 ul. Reaction was run on an SDS 7000 (Applied Biosystems) instruments, with the following amplification program: 2′ at 50° C.; 10′ at 95° C.; 15″ at 95° C. and 1′ at 60° C. for 40 cycles; Cycle threshold (Ct) values were exported into Excel Worksheets for analysis and relative quantitations were performed using the ΔCt method. All primers used carried the FAM reporter.
as §6

[7] = tested on: ovalbumin-challenged mouse bladder; assay: Blind histological analysis of bladder sections, allergic IC in mice; format: in vivo
Method: as §2, §3, §4, §5
Bladders were explanted from the animals, longitudinally divided in two moieties, one half was either immediately fixed in formalin (10% buffered) for at least 3 hrs or snap frozen in liquid nitrogen upon inclusion in OCT freezing medium (Tissue-Tek Sakura). For histological analysis, fixed bladders were further processed and finally paraffin embedded. Five um sections were serially cut then stained with GIEMSA (BDH, 20% solution, 3 hrs RT) and then de-stained in 0.1% acetic acid for 10 sec. After a clarification step in Xylene, slides were permanently mounted with Eukitt medium and analyzed by a pathologist in a blinded fashion in order to evaluate for inflammatory cell infiltrate, mast cell numbers, and the presence of interstitial edema. A semi-quantitative histological score was used, assigning: 1 for mild infiltrate, no edema; 2 for intermediate infiltration, little edema; and 3 for severe infiltration and edema.
as §6

[8] = tested on: allergen-induced chronic bladder inflammation; assay: Efficacy ranking in the allergen-induced chronic bladder inflammation model of interstitial cystitis; format: in vivo, mouse; settings: each compound at its tested dosage
Method: as §6
Summarizing all the results presented above in Example 7, we can conclude that these compounds can be ranked with respect to their efficacy in reducing several parameters measuring inflammation of the bladder in the allergen-induced chronic bladder inflammation model of interstitial cystitis.

[9] = 75 ug/kg oral vs vehicle, p<0.05
[10] = 75 ug/kg oral vs vehicle, p<0.01

In the case of `C=C1/C(=C\C=C2/CCC[C@]3(C)C([C@@H](C)C/C=C/C(O)(CC)CC)=CC[C@@H]23)C[C@@H](O)C[C@@H]1F` [Compound B, 1-alpha-fluoro-25-hydroxy-16,23E-diene-26,27-bishomo-20-epi-cholecalciferol], the “average serum calcium levels” value [1] is reported as “only slightly but not significantly elevated”, the “ovalbumin specific IgE in serum” value [2] is reported as “no significant changes” and the “serum levels of chymase MMCP1 protein” value [3, 9] is reported as “significantly lower”. The serum calcium level [4, 9] was “small, but statistically significant increase”, the “calcemic levels relative to the toxicity threshold” value ([4]; 75 ug/kg oral, toxicity threshold 10.7 mg/dl in mice) was “did not cause calcemic levels to rise above the toxicity threshold” and the serum calcium levels ([4]; lower dosage, not shown) was “No significant changes”. The “expression of inflammatory marker MCPT2” value [5] was “significantly reduces”, the “expression of inflammatory marker FcεR1α” value ([6]; 75 ug/kg oral, individual animals) was “down-modulates” and the “expression of inflammatory marker FcεR1α” value ([6]; 30 and 75 ug/kg oral, dose dependent, pooled samples) was “significantly reduces”. For the same compound, the “edema in bladder sections” value ([7]; 75 ug/kg oral vs vehicle, p<0.001) was “completely resolved”, the “eosinophils in bladder sections” value [7, 10] was “significant reduction” and the “lymphocytes in bladder sections” value [7, 10] was “significant reduction”. For the same compound, the “mast cells in bladder sections” value [7, 9] was “significant reduction”, the “signs of edema in representative bladder slides” value ([7]; 75 ug/kg oral, FIG. 16, x50 magnification) was “no signs of edema” and the “Efficacy ranking in reducing parameters of bladder inflammation” value [8] was “Compound E>Compound F>Compound B>Compound H>Compound I>Compound A>Compound A=Compound G”.
For `CC(=O)OC1C/C(=C/C=C2\CCC[C@]3(C)C(C(C)C/C=C\C(O)(C(F)(F)F)C(F)(F)F)=CCC23)C[C@@H](OC(C)=O)C1` (stereo partly shown) [Compound A, 1,3-Di-O-acetyl-1,25-dihydroxy-16,23Z-diene-26,27-hexafluoro-19-nor-cholecalciferol], the “serum level of the MMCP1 protein” value ([3]; ovalbumin challenged vs vehicle, oral ug/kg: A 0.1, E 0.3, F 30, F p<0.05, A, E p<0.001) was “statistically significant reduction”, the “serum calcium levels relative to the vehicle treated control group” value ([4]; oral ug/kg: C 3, A 0.1, E 0.3, F 30, G 100, H 1, I 3, elevations p<0.001) was “no significant increase” and the “numbers of eosinophils in the bladder wall” value ([7]; 0.1 ug/kg oral vs vehicle, p<0.05) was “significantly reduced numbers”. For the same compound, the “Efficacy ranking in reducing parameters of bladder inflammation” value [8] was “Compound E>Compound F>Compound B>Compound H>Compound I>Compound A>Compound A=Compound G”.
